Source: patent publication US20110182922A1, “PEPTIDES OF IL1 BETA AND TNF ALPHA AND METHOD OF TREATMENT USING SAME” (VAX CONSULTING, priority 2004, published 2011)
Bridge positions count the residues as written; N and C are the ends. Ends that are not written are not given here.

Columns and labels:
Format in all cases: in vivo
[1] = tested on: TNFα-dependent septic shock in mice; test: model of endotoxinic shock (LPS with Galactosamine) after preimmunization; conditions: Balb/c mice preimmunized with KLH-coupled peptide, shock on day D50 by LPS with Galactosamine; control KLH alone; p=0.008
Protocol: 4 murine TNFα peptides coupled to the KLH carrier protein, including the cyclized peptide CVSRFAISYQEKVNLLSC (SEQ ID NO:15) called TNFα-6, were tested in a model of endotoxinic shock. For this purpose, Balb/c mice were preimmunized against these peptides on days D0, […], and D40. On day D50, the mice were subjected to shock, i.e. they were injected with LPS with Galactosamine. A control was carried out on mice immunized against KLH alone.
It is noted that all the mice died after two days, except for the group immunized against the TNFα-6 peptide where the mice were protected. The protection conferred by the immunization was very significant (p=0.008).

native mTNFα cytokine = test: ELISA test of serum antibodies against native mTNFα after immunization; set-up: unit not given here; conditions: ELISA on serum day D50; groups of 4 mice, 20 ug peptide coupled to KLH, boosters D20 and D40
Protocol: (§1) 6 groups of 4 mice were immunized against 20 ug of the murine IL1β peptides IRQLHYRLRDEQQKSL (group 1) (SEQ ID NO:11), SFVQGEPSNDKIP (group 2) (SEQ ID NO:12), QYPKKKMEKRFVFNKIEV (group 3) (SEQ ID NO:13), IIDFTMESVSS (group 4) (SEQ ID NO:14), and 20 ug of the murine TNFα peptide KYLDFAESGQVY (group 5) (SEQ ID NO:6) all coupled to KLH. Group 6 corresponds to mice immunized by KLH alone. A booster was administered on days D20 and D40. On day D50 the mice were sacrificed and the antibodies directed against the native mTNFα cytokine and the native mIL1β cytokine in the serums were measured by an ELISA test.

native mIL1β cytokine = test: ELISA test of serum antibodies against native mIL1β after immunization; set-up: unit not given here; conditions: ELISA on serum day D50; groups of 4 mice, 20 ug peptide coupled to KLH, boosters D20 and D40
Protocol: as §1

[2] = tested on: collagen arthritis induced in mice; test: model of collagen arthritis after preimmunization; conditions: DBA1 mice preimmunized with KLH-coupled peptide, collagen in Freund's adjuvant D80 and D95, scored D100-D160; control KLH alone; p=0.0003, ANOVA test
Protocol: 3 murine IL1β peptides coupled to the KLH protein, including the cyclized IL1-6 peptide of sequence YCYISTSQAEHKPVFLGC (SEQ ID NO:16), were tested in a model of collagen arthritis. For this purpose, DBA1 mice were preimmunized against these peptides on days D0, D20, D40, […]. On day D80 the mice were immunized against collagen in Freund's adjuvant, and similarly on day D95. The development of arthritis was monitored between day D100 and day D160: twice weekly, the mice were examined and a score was attributed to them as a function of the state of inflammation of their joints (0=no inflammation, 1=slight inflammation, 2=average inflammation, 3=strong inflammation).

| Sequence | survival of mice subjected to septic shock (protection) [1] | Anti-TNFα response Average (native mTNFα cytokine) | Anti-IL1β response Average (native mIL1β cytokine) | clinical score of joint inflammation (protection with respect to control) [2] |
| --- | --- | --- | --- | --- |
| CVSRFAISYQEKVNLLSC (disulfide 1-18 (inferred)) [TNFα-6, cyclized murine TNFα peptide] | protected | – | – | – |
| IIDFTMESVSS [Group 4, murine IL1β peptide 142-152] | – | 0.12 | 0.8 | – |
| IRQLHYRLRDEQQKSL [Group 1, murine IL1β peptide 3-18] | – | 0.13 | 1.5 | – |
| KYLDFAESGQVY [Group 5, murine TNFα peptide 140-150] | – | 1.3 | 0.31 | – |
| QYPKKKMEKRFVFNKIEV [Group 3, murine IL1β peptide 89-106] | – | 0.18 | 1.6 | – |
| SFVQGEPSNDKIP [Group 2, murine IL1β peptide 45-57] | – | 0.15 | 1.9 | – |
| VSRFAISYQEKVNLLS [SEQ ID NO:1, peptide area 80-95 of the murine TNFα cytokine] | capable of blocking TNFα-dependent septic shock in mice | – | – | – |
| YCYISTSQAEHKPVFLGC (disulfide 2-18 (inferred); also: coupled to KLH carrier protein) [IL1β-6, cyclized murine IL1β peptide] | – | – | – | strong protection level |
| YISTSQAEHKPVFLG [SEQ ID NO:3, peptide area 121-135 of the murine IL1β cytokine] | – | – | – | capable of blocking collagen arthritis induced in mice |
